{"source": "patent US20210087533A1", "about": "“CANINE EPITHELIAL ORGANOIDS AND METHODS OF MAKING, RECOVERING, AND USE” (Iowa State University Research Foundation, Inc., priority 2019, published 2021)", "key": {"TCC organoids [1]": {"system": "TCC organoids", "assay": "Ki-67 IHC staining (proliferation) of TCC organoids", "assay_type": "cell-based, canine"}, "TCC organoids [2]": {"system": "TCC organoids", "assay": "MTT cell viability (cytotoxicity) assay, TCC organoids", "assay_type": "cell-based, canine", "details": "for effect on TCC cell viability (MTT assay): old, much passaged TCC organoids", "experimental": "Transitional Cell Carcinoma (TCC) Organoid Isolation and Culture. Canine bladder cancer cells for TCC organoids were isolated from urine (TCC #1) or biopsies (TCC #2) of dogs with transitional cell carcinoma. Briefly, urine was centrifuged and washed or small biopsies were washed with 1×Complete Chelation Solution (CCS) and vortexing up to 6 times, then incubated in 20-30 mM EDTA for 1 hour at 4° C. on a rocker. FBS and CCS was added to stop EDTA chelation, mixed, and the supernatant containing cancer cells was put in a new tube. Samples were centrifuged at 150 g for 5 minutes at 4° C., resuspended in DMEM/F12, centrifuged again, and the pellet was resuspended in 120 ul […]®. […]® droplets were then plated at 30 ul/well […]®/cells on 24-well plates. Complete Media with Growth Factors (CMGF+) containing Rock inhibitor and GSK inhibitor was added for 2-3 days at 37 C, and after 2-3 days, TCC organoids were cultured in CMGF+ media without inhibitors. TCC organoids were passaged every 4-7 days with TrypLE Express to dissociate organoids to single cells.\nMTT Cell Viability Assay (Cytotoxicity Assay). Organoids from healthy intestine or transitional cell carcinoma (TCC) were dissociated and plated at equal density in 30 ul/well […]® in 24-well plates in 500 ul/well CMGF+ growth medium. On Day 1-4 after passage, organoids were incubated with the indicated drug for 48 or 96 hours. Cytotoxicity was determined using 3-(4,5-dimethylthiazol-2-yl) 2,5-diphenyl tetrazolium bromide (MTT) at a final concentration of 0.5 mg/mL for 1.5 hr. After medium removal, 200 ul/well cold DMSO was used to dissolve the formazan dye crystals and absorbance was read at 570 nm using a plate reader (SpectraMax 190, Molecular Devices).\nAs DMSO freezes […] but it is preferable to use cold media (4° C.) to dissolve the […]®. Thus, put DMSO briefly in 4° C. fridge or −20° C. freezer and remove before it all freezes, then use cold DMSO, pipette up and down vigorously, shake the plate, put plate in freezer briefly, etc. to try to get the […]® and formazan dye crystals to dissolve."}, "TCC organoids [3]": {"system": "TCC organoids", "assay": "Morphology of treated TCC organoids", "assay_type": "cell-based, canine", "details": "fenoldopam-treated TCC organoids"}, "canine UC organoids": {"system": "canine UC organoids", "assay": "MTT assay for metabolic activity of urine-derived UC organoids", "assay_type": "cell-based", "details": "incubation for 24-48 hours", "experimental": "Free-catch urine was collected from one dog at time of UC diagnosis. Samples were centrifuged and supernatant was removed. The resulting pellet was washed with phosphate-buffered saline (PBS), then incubated in complete chelating solution (CCS) with EDTA and plated in […]® for establishment of organoid culture within one week. Sub-samples of differentiated UC organoids were taken for 3-(4,5-dimethylthiazol-2-yl)-2,5-diphenyltetrazolium bromide (MTT) assay for metabolic activity assessment after incubation with chemotherapeutic agents. Remaining UC organoids were characterized with H&E, RNA in-situ hybridization (RNA-ISH), and immunohistochemistry (IHC) staining techniques."}, "P-gp": {"molecular_target": "T1, P-gp (Canis lupus familiaris, UniProt C0KKU9)", "T1 construct": "Therefore, P-gp of the enteroids have maintained their transportation ability; endogenous in cells; host or cells: canine ileal enteroids (3D organoids from adult intestinal stem cells of dogs)", "T1 sequence (C0KKU9 1-1281)": "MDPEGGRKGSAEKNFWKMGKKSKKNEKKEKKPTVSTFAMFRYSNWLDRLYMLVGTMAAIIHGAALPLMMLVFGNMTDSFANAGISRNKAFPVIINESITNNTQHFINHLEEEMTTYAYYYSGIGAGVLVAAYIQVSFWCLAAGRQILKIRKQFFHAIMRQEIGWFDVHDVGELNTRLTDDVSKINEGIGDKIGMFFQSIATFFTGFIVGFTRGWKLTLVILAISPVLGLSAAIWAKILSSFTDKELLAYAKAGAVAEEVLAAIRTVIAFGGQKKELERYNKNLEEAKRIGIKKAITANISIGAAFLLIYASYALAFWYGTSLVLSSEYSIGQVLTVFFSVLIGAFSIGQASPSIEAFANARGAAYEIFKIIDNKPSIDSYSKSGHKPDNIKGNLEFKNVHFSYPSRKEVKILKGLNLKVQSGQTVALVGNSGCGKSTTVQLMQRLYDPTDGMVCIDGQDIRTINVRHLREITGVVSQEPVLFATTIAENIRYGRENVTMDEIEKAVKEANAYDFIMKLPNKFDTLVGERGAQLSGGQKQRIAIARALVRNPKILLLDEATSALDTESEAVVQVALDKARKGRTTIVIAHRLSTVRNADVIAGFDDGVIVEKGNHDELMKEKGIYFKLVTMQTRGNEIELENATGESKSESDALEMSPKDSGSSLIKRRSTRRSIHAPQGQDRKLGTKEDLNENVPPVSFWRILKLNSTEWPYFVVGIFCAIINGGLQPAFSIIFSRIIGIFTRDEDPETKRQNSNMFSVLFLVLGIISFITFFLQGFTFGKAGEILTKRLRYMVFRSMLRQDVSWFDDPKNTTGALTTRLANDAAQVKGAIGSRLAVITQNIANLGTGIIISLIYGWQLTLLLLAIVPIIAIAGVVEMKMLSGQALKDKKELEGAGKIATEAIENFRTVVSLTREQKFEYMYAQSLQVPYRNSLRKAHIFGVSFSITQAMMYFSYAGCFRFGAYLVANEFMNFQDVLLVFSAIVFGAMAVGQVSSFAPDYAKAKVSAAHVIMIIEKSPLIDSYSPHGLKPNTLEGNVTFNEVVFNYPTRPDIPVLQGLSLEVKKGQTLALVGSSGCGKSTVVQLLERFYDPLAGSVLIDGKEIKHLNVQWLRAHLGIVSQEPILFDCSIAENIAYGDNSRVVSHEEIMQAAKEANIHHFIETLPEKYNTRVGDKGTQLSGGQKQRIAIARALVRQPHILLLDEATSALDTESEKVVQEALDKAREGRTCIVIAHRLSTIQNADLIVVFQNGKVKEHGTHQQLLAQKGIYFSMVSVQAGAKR", "assay": "Rhodamine 123 (Rh123) transport in canine ileal enteroids", "assay_type": "cell-based", "details": "Rh123 1-50 μM, 30 min incubation, without verapamil", "protocol": "Canine ileal enteroids were passaged into 15 μL per well of […] ® in chambered cover glass system (Lab-Tek, Chambered Coverglass 8 well) and cultured with 300 μL per well of CMGF+ media for 2 days. […] Rh123 transport experiments were divided into: (1) Control [CTR] […] Enteroids were treated for 30 min and then washed with room-temperature PBS.\nConfocal microscopy (SP5 X MP LAS X; Leica) at the Iowa State University Roy J. Carver High Resolution Microscopy Facility was used to acquire images to detect green fluorescence within the luminal aspect of the enteroids. Fluorescence intensity was controlled by the luminal area to control for the size variation of the enteroids and quantified using the ImageJ software.\nStudent's t-tests were used to compare study groups (CTR vs. TRT) for the various doses of Rh123. The Benjamini-Hochberg Procedure was performed to control the risk of false positive for multiple comparisons. All statistical analyses were perform using GraphPad Prism 8.2.1 (San Diego, Calif.) and R 3.5.1. P<0.05 were considered as statistically significant."}}}
{"compound": "NCCc1ccc(O)c(O)c1", "note": "[Dopamine]", "values": [{"measurement": "increase of Ki-67 IHC staining", "setting": "TCC organoids [1]; 0.1, 1, 10 μM", "value": "about 2 fold"}]}
{"compound": "COc1cccc2c1C(=O)c1c(O)c3c(c(O)c1C2=O)C[C@@](O)(C(=O)CO)C[C@@H]3O[C@H]1C[C@H](N)[C@H](O)[C@H](C)O1", "note": "[Doxorubicin]", "values": [{"measurement": "TCC organoid cell viability (MTT)", "setting": "TCC organoids [2]; 10 μM doxorubicin", "value": "50 % of control"}, {"measurement": "effect on TCC organoid cell viability (MTT), other runs", "setting": "TCC organoids [2]; sometimes observed", "value": "small 20% effect or no effect"}, {"measurement": "Ki-67 IHC (proliferation)", "setting": "TCC organoids [1]; 0.1 μM Dox, once", "value": "10-20 % of control"}]}
{"compound": "C[C@H](NC(=O)c1c(C(F)F)nn(C)c1Oc1cccc(C(F)(F)F)c1)c1ccc(C(=O)O)cc1", "note": "[E-7046]", "values": [{"measurement": "effect on TCC cell viability (MTT assay)", "setting": "TCC organoids [2]; other plate, dose not given", "value": "slight stimulatory effect"}]}
{"compound": "NS(=O)(=O)NCCNc1nonc1C(=NO)Nc1ccc(F)c(Br)c1", "note": "[Epacadostat]", "values": [{"measurement": "TCC cell viability (MTT assay)", "setting": "TCC organoids [2]; 1 μM Epacadostat, 48 hours", "value": "about 80 % of control"}, {"measurement": "decrease of TCC cell viability (MTT assay)", "setting": "TCC organoids [2]; other doses of Epacadostat, 48 hours", "value": "not at the other doses"}]}
{"compound": "COc1cc(OC)cc(N(CCNC(C)C)c2ccc3ncc(-c4cnn(C)c4)nc3c2)c1", "note": "[Erdafitinib]", "values": [{"measurement": "effect on TCC cell viability (MTT assay)", "setting": "TCC organoids [2]; 1-10 μM", "value": "no effect"}]}
{"compound": "Oc1ccc(C2CNCCc3c2cc(O)c(O)c3Cl)cc1", "note": "(centres unmarked) [Fenoldopam]", "values": [{"measurement": "lumens/holes in the TCC organoids", "setting": "TCC organoids [3]", "value": "getting bigger"}, {"measurement": "decrease of TCC organoid Ki-67 (proliferation)", "setting": "TCC organoids [1]; 1 nM Fenoldopam", "value": "about 50%"}, {"measurement": "effect on TCC organoid Ki-67 (proliferation)", "setting": "TCC organoids [1]; 10 μM Fenoldopam", "value": "did not have much effect"}]}
{"compound": "CN1C(C(=O)Nc2ccccn2)=C(O)c2ccccc2S1(=O)=O", "note": "[Piroxicam]", "values": [{"measurement": "cell viability (MTT)", "setting": "TCC organoids [2]; 1-10 μM, 48 hours or 4 days, organoid type not restated", "value": "≥ 80 % of control"}, {"measurement": "decrease of Ki-67 staining", "setting": "TCC organoids [1]; 0.1 μM Piroxicam", "value": 50, "unit": "%"}, {"measurement": "increase of Ki-67 IHC staining", "setting": "TCC organoids [1]; 1-10 μM Piroxicam", "value": "2-3 fold"}]}
{"compound": "CC[C@]1(O)C[C@@H]2CN(CCc3c([nH]c4ccccc34)[C@@](C(=O)OC)(c3cc4c(cc3OC)N(C)[C@H]3[C@@](O)(C(=O)OC)[C@H](OC(C)=O)[C@]5(CC)C=CCN6CC[C@]43[C@@H]65)C2)C1", "note": "[Vinblastine]", "values": [{"measurement": "effect on TCC cell viability (MTT assay)", "setting": "TCC organoids [2]; other plate, dose not given", "value": "slight stimulatory effect"}]}
{"compound": "N.N.[Cl][Pt][Cl]", "note": "[cisplatin]", "values": [{"measurement": "metabolic activity of UC organoids (MTT)", "setting": "canine UC organoids", "value": "reduced metabolic activity"}]}
{"compound": "Rhodamine 123 [Rh123]", "values": [{"measurement": "Rh123 luminal transportation", "setting": "P-gp", "value": "significant dose response"}]}
